This is an account of results in US11091478B2 (Fochon Pharmaceuticals, Ltd., priority 2017, dated 2021).

The subject of the test is DOHH2 cells. Kind of test: Cell proliferation assay (MTS), DOHH2 cells, 120 h. The format is cell-based. To be noted: Homo sapiens, DOHH-2, 120 h. The text has this:
Cell Proliferation Assays
MTS testing kit was purchased from Promega. The RPMI-1640, Fetal bovine serum and Penicillin-Streptomycin were purchased from Gibco. Dimethyl sulfoxide (DMSO) was purchased from Sigma.
To investigate whether a compound is able to inhibit the activity of BCL-2 in cells, a mechanism-based assay using DOHH2 (DSMZ No.® ACC 47) and RS4;11 (ATCC® CRL-1873™) cell was developed. In this assay, inhibition of Bcl-2 was detected by the inhibition of DOHH2 cells proliferation. DOHH2 cells were cultured in culture flasks to 40-80% confluence in RPMI-1640 plus 10% fetal bovine serum. Cells were collected and plated onto 96-well plates at desired cell density (5000 cells/well). Plates were incubated overnight at 37° C., with 5% CO2 to adhere. Compounds were added to the plates, and the final compound concentrations were 10000, 3333, 1111, […], 124, 41, 14, 4.6 and 1.5 nM. Plates plated with DOHH2 or RS4;11 cells were placed at 37° C., with 5% CO2 for 120 h (DOHH2) or 72 h (RS4;11) respectively. 20 μl MTS/100 μl medium mixture solution were added to each well and incubate the plates for exactly 2 hours. The reaction was stopped by adding 25 μl 10% SDS per well. Measure absorbance at 490 nm and 650 nm (reference wavelength). IC50 was calculated using GraphPad Prism 5.0.
Select compounds prepared as described above were assayed according to the biological procedures described herein.

`CC1(C)CCC(CN2CCN(c3ccc(C(=O)NS(=O)(=O)c4cc5c(c([N+](=O)[O-])c4)N[C@H](c4ccc(Cl)cc4)CO5)c(Oc4cnc5[nH]ccc5c4)c3)CC2)=C(c2ccc(Cl)cc2)C1` [Example 2-167, (R)-2-((1H-pyrrolo[2,3-b]pyridin-5-yl)oxy)-4-(4-((4′-chloro-5,5-dimethyl-3,4,5,6-tetra-hydro-[1,1′-biphenyl]-2-yl)methyl)piperazin-1-yl)-N-((3-(4-chlorophenyl)-5-nitro-3,4-dihydro-2H-benzo[b][1,4]oxazin-7-yl)sulfo-nyl)benzamide] gave an IC50 of 29 nM.

Take `CC1(C)CCC(CN2CCN(c3ccc(C(=O)NS(=O)(=O)c4cc5c(c([N+](=O)[O-])c4)N[C@@H](c4ccc(Cl)cc4)CO5)c(Oc4cnc5[nH]ccc5c4)c3)CC2)=C(c2ccc(Cl)cc2)C1` [Example 2-174, (S)-2-((1H-pyrrolo[2,3-b]pyridin-5-yl)oxy)-4-(4-((4′-chloro-5,5-dimethyl-3,4,5,6-tetra-hydro-[1,1′-biphenyl]-2-yl)methyl)piperazin-1-yl)-N-((3-(4-chlorophenyl)-5-nitro-3,4-dihydro-2H-benzo[b][1,4]oxazin-7-yl)sulfo-nyl)benzamide]: the IC50 amounted to 23 nM.

In turn, `CC1(C)CCC(CN2CCN(c3ccc(C(=O)NS(=O)(=O)c4cc5c(c([N+](=O)[O-])c4)N[C@@H](Cc4ccc(Cl)cc4)CO5)c(Oc4cnc5[nH]ccc5c4)c3)CC2)=C(c2ccc(Cl)cc2)C1` [Example 2-207, (S)-2-((1H-pyrrolo[2,3-b]pyridin-5-yl)oxy)-4-(4-((4′-chloro-5,5-dimethyl-3,4,5,6-tetra-hydro-[1,1′-phenyl]-2-yl)methyl)piperazin-1-yl)-N-((3-(4-chlorobenzyl)-5-nitro-3,4-dihydro-2H-benzo[b][1,4]oxazin-7-yl)sulfo-nyl)benzamide] gave an IC50 of 402 nM.

Turning to `CC1(C)CCC(CN2CCN(c3ccc(C(=O)NS(=O)(=O)c4cc5c(c([N+](=O)[O-])c4)N[C@H](CNS(C)(=O)=O)CO5)c(Oc4cnc5[nH]ccc5c4)c3)CC2)=C(c2ccc(Cl)cc2)C1` [Example 2-136, (R)-2-((1H-pyrrolo[2,3-b]pyridin-5-yl)oxy)-4-(4-((4′-chloro-5,5-dimethyl-3.4.5.6-tetra-hydro-[1,1′-biphenyl]-2-yl)methyl)piperazin-1-yl)-N-((3-(methylsulfonamidomethyl)-5-nitro-3,4-dihydro-2H-benzo[b][1,4]oxa-zin-7-yl)sulfonyl)benzamide], the IC50 amounted to 378 nM.

For `CC1(C)CCC(CN2CCN(c3ccc(C(=O)NS(=O)(=O)c4cc5c(c([N+](=O)[O-])c4)N[C@H](CN4CCC(C)(O)CC4)C5)c(Oc4cnc5[nH]ccc5c4)c3)CC2)=C(c2ccc(Cl)cc2)C1` [Example 1-4, (S)-2-((1H-pyrrolo[2,3-b]pyridin-5-yl)oxy)-4-(4-((4′-chloro-5,5-dimethyl-3,4,5,6-tetra-hydro-[1,1′-biphenyl]-2-yl)methyl)piperazin-1-yl)-N-((2-((4-hydroxy-4-methylpiperidin-1-yl)methyl)-7-nitroindolin-5-yl)sulfonyl) benzamide], the IC50 is 308 nM.

On to `CC1(C)CCC(CN2CCN(c3ccc(C(=O)NS(=O)(=O)c4cc5c(c([N+](=O)[O-])c4)N[C@H](c4ccc(Cl)cn4)CO5)c(Oc4cnc5[nH]ccc5c4)c3)CC2)=C(c2ccc(Cl)cc2)C1` [Example 2-217, (R)-2-((1H-pyrrolo[2,3-b]pyridin-5-yl)oxy)-4-(4-((4′-chloro-5,5-dimethyl-3,4,5,6-tetra-hydro-[1,1′-biphenyl]-2-yl)methyl)piperazin-1-yl)-N-((3-(5-chloropyridin-2-yl)-5-nitro-3,4-dihydro-2H-benzo[b][1,4]oxazin-7-yl)sulfonyl)benzamide], for which it took 715 nM to reach half-maximal inhibition (IC50).

Regarding `CC1(C)CCC(CN2CCN(c3ccc(C(=O)NS(=O)(=O)c4cc5c(c([N+](=O)[O-])c4)N[C@H](c4ccc(F)cn4)CO5)c(Oc4cnc5[nH]ccc5c4)c3)CC2)=C(c2ccc(Cl)cc2)C1` [Example 2-178, (R)-2-((1H-pyrrolo[2,3-b]pyridin-5-yl)oxy)-4-(4-((4′-chloro-5,5-dimethyl-3,4,5,6-tetra-hydro-[1,1′-biphenyl]-2-yl)methyl)piperazin-1-yl)-N-((3-(5-fluoropyridin-2-yl)-5-nitro-3,4-dihydro-2H-benzo[b][1,4]oxazin-7-yl)sulfonyl)benzamide], the IC50 came out at 28 nM.

`CC1(C)CCC(CN2CCN(c3ccc(C(=O)NS(=O)(=O)c4cc5c(c([N+](=O)[O-])c4)O[C@H](c4ccc(Cl)cn4)CN5)c(Oc4cnc5[nH]ccc5c4)c3)CC2)=C(c2ccc(Cl)cc2)C1` [Example 2-218, (S)-2-((1H-pyrrolo[2,3-b]pyridin-5-yl)oxy)-4-(4-((4′-chloro-5,5-dimethyl-3,4,5,6-tetra-hydro-[1,1′-biphenyl]-2-yl)methyl)piperazin-1-yl)-N-((2-(5-chloropyridin-2-yl)-8-nitro-3,4-dihdyro-2H-benzo[b][1,4]oxazin-6-yl)sulfonyl)benzamide] returned an IC50 of 507 nM.

The molecule `CC1(C)CCC(CN2CCN(c3ccc(C(=O)NS(=O)(=O)c4cc5c(c([N+](=O)[O-])c4)N[C@H](CCNC(=O)C4CCOCC4)CO5)c(Oc4cnc5[nH]ccc5c4)c3)CC2)=C(c2ccc(Cl)cc2)C1` [Example 2-57, (R)-N-(2-(7-(N-(2-((1H-pyrrolo[2,3-b]pyridin-5-yl)oxy)-4-(4-((4′-chloro-5,5-dimethyl-3,4,5,6-tetrahydro-[1,1′-biphenyl]-2-yl)meth-yl)piperazin-1-yl)benzoyl)sulfamoyl)-5-nitro-3,4-dihydro-2H-benzo[b][1,4]oxazin-3-yl)ethyl)tetrahydro-2H-pyran-4-carboxamide] gave a concentration for half-maximal inhibition (IC50) of 392 nM.

As to `CC1(C)CCC(CN2CCN(c3ccc(C(=O)NS(=O)(=O)c4cc5c(c([N+](=O)[O-])c4)N[C@@H](CN4CCS(=O)(=NC6CC6)CC4)CO5)c(Oc4cnc5[nH]ccc5c4)c3)CC2)=C(c2ccc(Cl)cc2)C1` [Example 2-124, (S)-2-((1H-pyrrolo[2,3-b]pyridin-5-yl)oxy)-4-(4-((4′-chloro-5,5-dimethyl-3,4,5,6-tetra-hydro-[1,1′-biphenyl]-2-yl)methyl)piperazin-1-yl)-N-((3-((1-(cyclopropylimino)-1-oxi-do-1λ^6-thiomorpholino)methyl)-5-nitro-3,4-dihydro-2H-benzo[b][1,4]oxazin-7-yl)sulfonyl)benzamide], half-maximal inhibition (IC50) was put at 649 nM.

`CC1(C)CCC(CN2CCN(c3ccc(C(=O)NS(=O)(=O)c4cc5c(c([N+](=O)[O-])c4)N[C@@H](c4ccc(F)cn4)CO5)c(Oc4cnc5[nH]ccc5c4)c3)CC2)=C(c2ccc(Cl)cc2)C1` [Example 2-197, (S)-2-((1H-pyrrolo[2,3-b]pyridin-5-yl)oxy)-4-(4-((4′-chloro-5,5-dimethyl-3,4,5,6-tetra-hydro-[1,1′-biphenyl]-2-yl)methyl)piperazin-1-yl)-N-((3-(5-fluoropyridin-2-yl)-5-nitro-3,4-dihydro-2H-benzo[b][1,4]oxazin-7-yl)sulfonyl)benzamide] showed an IC50 of 412 nM.

Take `CC1(C)CCC(CN2CCN(c3ccc(C(=O)NS(=O)(=O)c4cc5c(c([N+](=O)[O-])c4)N[C@@H](CCNC(=O)N4CCOCC4)CO5)c(Oc4cnc5[nH]ccc5c4)c3)CC2)=C(c2ccc(Cl)cc2)C1` [Example 2-58, (S)-N-(2-(7-(N-(2-((1H-pyrrolo[2,3-b]pyridin-5-yl)oxy)-4-(4-((4′-chloro-5,5-dimethyl-3,4,5,6-tetrahydro-[1,1′-biphenyl]-2-yl)meth-yl)piperazin-1-yl)benzoyl)sulfamoyl)-5-nitro-3,4-dihydro-2H-benzo[b][1,4]oxazin-3-yl)ethyl)morpholine-4-carboxamide]: the midpoint of inhibition, the IC50, lay at 868 nM.

On to `CN1CCN(CC[C@@H]2CNc3cc(S(=O)(=O)NC(=O)c4ccc(N5CCN(CC6=C(c7ccc(Cl)cc7)CC(C)(C)CC6)CC5)cc4Oc4cnc5[nH]ccc5c4)cc([N+](=O)[O-])c3N2)CC1` [Example 4-5, (R)-2-((1H-pyrrolo[2,3-b]pyridin-5-yl)oxy)-4-(4-((4′-chloro-5,5-dimethyl-3,4,5,6-tetra-hydro-[1,1′-biphenyl]-2-yl)methyl)piperazin-1-yl)-N-((2-(2-(4-methylpiperazin-1-yl)ethyl)-8-nitro-1,2,3,4-tetrahydroquinoxalin-6-yl)sulfonyl)benzamide], for which half-maximal inhibition (IC50) was put at 232 nM.

Molecule `CC1(C)CCC(CN2CCN(c3ccc(C(=O)NS(=O)(=O)c4cc5c(c([N+](=O)[O-])c4)N[C@H](CO)C5)c(Oc4cnc5[nH]ccc5c4)c3)CC2)=C(c2ccc(Cl)cc2)C1` [Example 1-6, (S)-2-((1H-pyrrolo[2,3-b]pyridin-5-yl)oxy)-4-(4-((4′-chloro-5,5-dimethyl-3,4,5,6-tetra-hydro-[1,1′-biphenyl]-2-yl)methyl)piperazin-1-yl)-N-((2-(hydroxymethyl)-7-nitroindolin-5-yl)sulfonyl)benzamide] registered an IC50 of 221 nM.

In turn, `CC1(C)CCC(CN2CCN(c3ccc(C(=O)NS(=O)(=O)c4cc5c(c([N+](=O)[O-])c4)N[C@@H](CN=S4(=O)CCCC4)CO5)c(Oc4cnc5[nH]ccc5c4)c3)CC2)=C(c2ccc(Cl)cc2)C1` [Example 2-76, (S)-2-((1H-pyrrolo[2,3-b]pyridin-5-yl)oxy)-4-(4-((4′-chloro-5,5-dimethyl-3,4,5,6-tetra-hydro-[1,1′-biphenyl]-2-yl)methyl)piperazin-1-yl)-N-((5-nitro-3-(((1-oxidotetrahydro-1λ^6-thiophen-1-ylidene)amino)methyl)-3,4-dihydro-2H-benzo[b][1,4]oxazin-7-yl)sulfo-nyl)benzamide] had a half-maximal inhibitory concentration (IC50) of 120 nM.

One may read the IC50 as the concentration needed to halve the response being measured. Low values mean inhibition by little substance, high ones a need for much substance.
